# Values joined by “and” are separate entries in the source; they are usually repeats but may differ in a detail not shown here. Equal entries are not always repeated. ± gives the expanded uncertainty stated by the source.
# Key:
# [1] = DTA
# [2] = Molar enthalpy of transition or fusion; conditions: DSC
# [3] = molar heat capacity at constant pressure; conditions: 101.33 kPa, Small sample (50 mg) DSC
compound,measurement,setting,value
"c1ccc2cc3cc4ccccc4cc3cc2c1 [2,3-benzanthracene]",Normal melting temperature,[1]; Crystal 1,353.1 ± 0.4 °C
same,Triple point temperature,[1]; Crystal 2,581.9 ± 1.1 K
same,Triple point temperature,[1]; Crystal 3,398.1 ± 2.4 K
same,Molar enthalpy of transition or fusion,[2]; Crystal 1,8.8 ± 0.263 kcal/mol
same,Molar enthalpy of transition or fusion,[2]; Crystal 2,0.287 ± 0.0478 kcal/mol
same,Molar enthalpy of transition or fusion,[2]; Crystal 3,0.0263 ± 0.0311 kcal/mol
same,molar heat capacity at constant pressure,"[3]; 258.1 K, Crystal 3",218.8 ± 5.4 J/K/mol and 220.8 ± 5.4 J/K/mol and 219.3 ± 5.4 J/K/mol
same,molar heat capacity at constant pressure,"[3]; 268.3 K, Crystal 3",230.5 ± 5.6 J/K/mol [middle of 4 runs]
same,molar heat capacity at constant pressure,"[3]; 278.5 K, Crystal 3",240.6 ± 5.9 J/K/mol [middle of 4 runs]
same,molar heat capacity at constant pressure,"[3]; 288.7 K, Crystal 3",250.4 ± 6.1 J/K/mol [middle of 4 runs]
same,molar heat capacity at constant pressure,"[3]; 298.9 K, Crystal 3",260.8 ± 6.4 J/K/mol [middle of 4 runs]
same,molar heat capacity at constant pressure,"[3]; 299.3 K, Crystal 3",260.9 ± 11 J/K/mol
same,molar heat capacity at constant pressure,"[3]; 309.1 K, Crystal 3",269.7 ± 6.6 J/K/mol [middle of 4 runs]
same,molar heat capacity at constant pressure,"[3]; 309.3 K, Crystal 3",270.1 ± 12 J/K/mol
same,molar heat capacity at constant pressure,"[3]; 319.2 K, Crystal 3",280.1 ± 12 J/K/mol
same,molar heat capacity at constant pressure,"[3]; 319.4 K, Crystal 3",278 ± 6.8 J/K/mol [middle of 4 runs]
same,molar heat capacity at constant pressure,"[3]; 329.1 K, Crystal 3",286.4 ± 12 J/K/mol
same,molar heat capacity at constant pressure,"[3]; 329.6 K, Crystal 3",287.1 ± 7 J/K/mol [middle of 4 runs]
same,molar heat capacity at constant pressure,"[3]; 339.1 K, Crystal 3",295.8 ± 12 J/K/mol
same,molar heat capacity at constant pressure,"[3]; 339.8 K, Crystal 3",296.6 ± 7.3 J/K/mol and 295.5 ± 7.2 J/K/mol and 295.4 ± 7.2 J/K/mol
same,molar heat capacity at constant pressure,"[3]; 349 K, Crystal 3",307.1 ± 13 J/K/mol and 303.7 ± 13 J/K/mol
same,molar heat capacity at constant pressure,"[3]; 350 K, Crystal 3",304.2 ± 7.5 J/K/mol [middle of 4 runs]
same,molar heat capacity at constant pressure,"[3]; 359 K, Crystal 3",312.4 ± 13 J/K/mol and 314.7 ± 13 J/K/mol
same,molar heat capacity at constant pressure,"[3]; 368.9 K, Crystal 3",324.2 ± 14 J/K/mol and 319.7 ± 14 J/K/mol
same,molar heat capacity at constant pressure,"[3]; 378.9 K, Crystal 3",330.2 ± 14 J/K/mol and 332.5 ± 14 J/K/mol
same,molar heat capacity at constant pressure,"[3]; 388.8 K, Crystal 3",341.4 ± 14 J/K/mol
same,molar heat capacity at constant pressure,"[3]; 408.7 K, Crystal 2",357.6 ± 15 J/K/mol
same,molar heat capacity at constant pressure,"[3]; 418.6 K, Crystal 2",364.9 ± 16 J/K/mol and 365.7 ± 16 J/K/mol
same,molar heat capacity at constant pressure,"[3]; 428.6 K, Crystal 2",378.1 ± 16 J/K/mol
same,molar heat capacity at constant pressure,"[3]; 438.5 K, Crystal 2",381.3 ± 16 J/K/mol and 383.5 ± 16 J/K/mol
same,molar heat capacity at constant pressure,"[3]; 448.5 K, Crystal 2",391.9 ± 17 J/K/mol and 392.5 ± 17 J/K/mol
same,molar heat capacity at constant pressure,"[3]; 458.4 K, Crystal 2",403 ± 17 J/K/mol
same,molar heat capacity at constant pressure,"[3]; 468.4 K, Crystal 2",409.4 ± 17 J/K/mol and 411.7 ± 18 J/K/mol
same,molar heat capacity at constant pressure,"[3]; 478.3 K, Crystal 2",417.9 ± 18 J/K/mol
same,molar heat capacity at constant pressure,"[3]; 488.2 K, Crystal 2",426.2 ± 18 J/K/mol
same,molar heat capacity at constant pressure,"[3]; 498.2 K, Crystal 2",438.5 ± 19 J/K/mol
same,molar heat capacity at constant pressure,"[3]; 508.1 K, Crystal 2",444.3 ± 19 J/K/mol
same,molar heat capacity at constant pressure,"[3]; 518.1 K, Crystal 2",454.5 ± 19 J/K/mol
same,molar heat capacity at constant pressure,"[3]; 528 K, Crystal 2",459.9 ± 20 J/K/mol
same,molar heat capacity at constant pressure,"[3]; 538 K, Crystal 2",474.1 ± 20 J/K/mol
same,molar heat capacity at constant pressure,"[3]; 547.9 K, Crystal 2",479.3 ± 20 J/K/mol
same,molar heat capacity at constant pressure,"[3]; 557.8 K, Crystal 2",493.4 ± 21 J/K/mol
same,molar heat capacity at constant pressure,"[3]; 647.32 K, Liquid",505.18 ± 31 J/K/mol
same,molar heat capacity at constant pressure,"[3]; 657.27 K, Liquid",509.31 ± 31 J/K/mol
same,molar heat capacity at constant pressure,"[3]; 667.21 K, Liquid",513.42 ± 32 J/K/mol
"c1ccc2cc3cc4cc5ccccc5cc4cc3cc2c1 [2,3:6,7-dibenzanthracene]",molar heat capacity at constant pressure,"[3]; 258.1 K, Crystal",264.5 ± 6.5 J/K/mol and 265.5 ± 6.5 J/K/mol and 267.2 ± 6.5 J/K/mol
same,molar heat capacity at constant pressure,"[3]; 268.3 K, Crystal",275.7 ± 6.8 J/K/mol and 277.2 ± 6.8 J/K/mol and 277.1 ± 6.8 J/K/mol
same,molar heat capacity at constant pressure,"[3]; 278.5 K, Crystal",288.9 ± 7.1 J/K/mol and 287.1 ± 7 J/K/mol and 287.5 ± 7 J/K/mol
same,molar heat capacity at constant pressure,"[3]; 288.7 K, Crystal",299.7 ± 7.3 J/K/mol and 299.2 ± 7.3 J/K/mol
same,molar heat capacity at constant pressure,"[3]; 298.9 K, Crystal",311.6 ± 7.6 J/K/mol and 311.5 ± 7.6 J/K/mol and 311 ± 7.6 J/K/mol
same,molar heat capacity at constant pressure,"[3]; 309.1 K, Crystal",322.1 ± 7.9 J/K/mol and 322.4 ± 7.9 J/K/mol and 322.3 ± 7.9 J/K/mol
same,molar heat capacity at constant pressure,"[3]; 309.2 K, Crystal",324.4 ± 14 J/K/mol
same,molar heat capacity at constant pressure,"[3]; 319.2 K, Crystal",338.9 ± 14 J/K/mol
same,molar heat capacity at constant pressure,"[3]; 319.4 K, Crystal",332.5 ± 8.1 J/K/mol and 333.2 ± 8.2 J/K/mol and 332.1 ± 8.1 J/K/mol
same,molar heat capacity at constant pressure,"[3]; 329.6 K, Crystal",345.7 ± 8.5 J/K/mol and 346.5 ± 8.5 J/K/mol and 344.5 ± 8.4 J/K/mol
same,molar heat capacity at constant pressure,"[3]; 339.8 K, Crystal",356.2 ± 8.7 J/K/mol and 354.9 ± 8.7 J/K/mol and 355.1 ± 8.7 J/K/mol
same,molar heat capacity at constant pressure,"[3]; 350 K, Crystal",365.5 ± 9 J/K/mol and 367.2 ± 9 J/K/mol and 366 ± 9 J/K/mol
same,molar heat capacity at constant pressure,"[3]; 359 K, Crystal",384.6 ± 16 J/K/mol
same,molar heat capacity at constant pressure,"[3]; 368.9 K, Crystal",394.9 ± 17 J/K/mol
same,molar heat capacity at constant pressure,"[3]; 378.9 K, Crystal",406 ± 17 J/K/mol
same,molar heat capacity at constant pressure,"[3]; 388.8 K, Crystal",411.4 ± 18 J/K/mol
same,molar heat capacity at constant pressure,"[3]; 398.7 K, Crystal",427.1 ± 18 J/K/mol
same,molar heat capacity at constant pressure,"[3]; 408.7 K, Crystal",425.7 ± 18 J/K/mol
same,molar heat capacity at constant pressure,"[3]; 418.6 K, Crystal",436.8 ± 18 J/K/mol
same,molar heat capacity at constant pressure,"[3]; 428.6 K, Crystal",450.1 ± 19 J/K/mol
same,molar heat capacity at constant pressure,"[3]; 438.5 K, Crystal",457.6 ± 19 J/K/mol
same,molar heat capacity at constant pressure,"[3]; 448.5 K, Crystal",466.7 ± 20 J/K/mol
same,molar heat capacity at constant pressure,"[3]; 458.4 K, Crystal",476.5 ± 20 J/K/mol
same,molar heat capacity at constant pressure,"[3]; 468.3 K, Crystal",481.6 ± 20 J/K/mol
same,molar heat capacity at constant pressure,"[3]; 478.3 K, Crystal",497.2 ± 21 J/K/mol
same,molar heat capacity at constant pressure,"[3]; 488.2 K, Crystal",501.9 ± 21 J/K/mol
same,molar heat capacity at constant pressure,"[3]; 498.2 K, Crystal",509.1 ± 22 J/K/mol
same,molar heat capacity at constant pressure,"[3]; 508.1 K, Crystal",518.2 ± 22 J/K/mol
same,molar heat capacity at constant pressure,"[3]; 518.1 K, Crystal",527.8 ± 22 J/K/mol
same,molar heat capacity at constant pressure,"[3]; 528 K, Crystal",529.1 ± 22 J/K/mol
same,molar heat capacity at constant pressure,"[3]; 537.9 K, Crystal",549.1 ± 23 J/K/mol
same,molar heat capacity at constant pressure,"[3]; 547.9 K, Crystal",552.3 ± 23 J/K/mol
same,molar heat capacity at constant pressure,"[3]; 557.8 K, Crystal",558.6 ± 24 J/K/mol
same,molar heat capacity at constant pressure,"[3]; 567.8 K, Crystal",566.7 ± 24 J/K/mol
same,molar heat capacity at constant pressure,"[3]; 577.7 K, Crystal",575.7 ± 24 J/K/mol
same,molar heat capacity at constant pressure,"[3]; 587.7 K, Crystal",578.8 ± 25 J/K/mol
same,molar heat capacity at constant pressure,"[3]; 597.6 K, Crystal",592.5 ± 25 J/K/mol

# — the NIST ThermoML archive (doi:10.1021/je800382b)
